Structures can show the parent of a compound that is named as a salt. Where two headings read alike, the source gives them in different places.
Legend:
[1] = 2% stearic acid; for in vitro elution rate: nine pellets, 100 mL PBS at 37° C.; for release rate: about 250 mg API, up to 36 weeks
Excerpt: In one embodiment of the present invention, tizanidine is delivered to the subject at a target range of about 100 micrograms/day to about 10,000 micrograms/day. For example, tizanidine is delivered to the subject at a target range of about 100 to about 5,000 micrograms/day, or about 200 to about 4,000 micrograms per day, or about 300 to about 3,000 micrograms per day or about 400 to about 2,000 micrograms per day. The testing method set forth in the examples to determine the elution rates for compositions comprising tizanidine includes placing the implants in an elution bath consisting of PBS or 0.9% saline at 37° C. Weekly exchanges of the elution media are then analyzed by HPLC for the durations given.
The implants were sterilized by gamma irradiation and placed in an elution bath consisting of 100 mL PBS at 37° C.
A discrete solid dosage form was prepared as follows. The drug implants were manufactured using PEBAX® 2533 and PEBAX® 3533, as the tubing material and tizanidine free base as the API. […] A total of about 250 mg tizanidine free base were loaded into the implant with 10% croscarmellose and 2% stearic acid. The implant were sterilized by gamma irradiation and placed in an elution batch consisting of 200 mL 0.9% saline at 37° C.
A discrete solid dosage form was prepared as follows. Various polyurethanes were used as the tubing material (i.e., TECOFLEX® EG-80A, TECOFLEX® EG-85A, TECOFLEX® EG-93A, TECOPHILIC® HP-60D-05, and TECOPHILIC® HP-60D-10 polyurethanes) and tizanidine hydrochloride as the API. […] A total of about 380 mg tizanidine hydrochloride were loaded into the implant with 10% croscarmellose and 2% stearic acid. The implants were sterilized by gamma irradiation and placed in an elution batch consisting of 200 mL PBS at 37° C. Weekly exchanges of the elution media were analyzed by HPLC over 5 weeks.
The drug implants were manufactured as described in Example 3, except tizanidine free base was used as the API instead of tizanidine HCl. […] A total of about 250 mg tizanidine free base were loaded into the implants with 10% croscarmellose and 2% stearic acid. The implants were sterilized by gamma irradiation and placed in an elution batch consisting of 200 mL PBS at 37° C. Weekly exchanges of the elution media were analyzed by HPLC for up to 36 weeks.

[2] = oral dosage form, approximate; cited from earlier work

| drug release from the implants (elution rate in vitro) ([1]; all polyurethanes investigated (TECOFLEX EG-80A, EG-85A, EG-93A, TECOPHILIC HP-60D-05, HP-60D-10), about 380 mg API, 10% croscarmellose, 200 mL PBS at 37° C., 5 weeks) | in vitro elution rate ([1]; TECOFLEX EG-80A implant, 5% croscarmellose, 405 mg API, week 2) | in vitro elution rate ([1]; TECOFLEX EG-80A implant, 5% croscarmellose, 405 mg API, week 27) | in vitro elution rate ([1]; TECOFLEX EG-80A implant, 15% croscarmellose, 360 mg API, week 2) | in vitro elution rate ([1]; TECOFLEX EG-80A implant, 15% croscarmellose, 360 mg API, week 27) | release rate ([1]; TECOFLEX EG-80A implant, 10% croscarmellose, 200 mL PBS at 37° C.) | release rate ([1]; TECOFLEX EG-93A implant, 10% croscarmellose, 200 mL PBS at 37° C.) | Compound | oral bioavailability [2] |
| --- | --- | --- | --- | --- | --- | --- | --- | --- |
| below 100 μg per day | – | – | – | – | – | – | Clc1ccc2nsnc2c1NC1=NCCN1 [tizanidine HCl, tizanidine hydrochloride] | 20-40% |
| – | about 1,200 μg/day | about 900 μg/day | about 1,400 μg/day | about 1,250 μg/day | about 900 μg per day | about 100 μg per day | Clc1ccc2nsnc2c1NC1=NCCN1 [tizanidine free base, 5-chloro-N-(4,5-dihydro-1H-imidazol-2-yl)benzo[c][1,2,5]thiadiazol-4-amine] | – |

From patent US9011910B2, “Implantable tizanidine compositions and methods of treatment thereof” (Endo Pharmaceuticals Solutions Inc., priority 2011, dated 2015)
